Measurements taken from PMC10321576, “Cyclic peptides target the aromatic cage of a PHD-finger reader domain to modulate epigenetic protein function” (Chemical Science, 2023).
Peptide text beside a SMILES is read from it.

Experiments:
[1] = target: T1, KDM7B PHD (Homo sapiens, UniProt Q9UPP1); experiment: BLI binding; settings: read-out: BLI KD, KDM7B PHD-finger
T1 construct: KDM7B 1-66; made in house
T1 sequence (Q9UPP1 1-66 isoform Q9UPP1-2): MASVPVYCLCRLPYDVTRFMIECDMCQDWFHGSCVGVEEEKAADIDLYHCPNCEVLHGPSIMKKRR
Source text: Figure S2. BLI for KDM7 proteins with cyclic peptides.
BLI traces for b inding to KDM7 protein domains immobilised by C-terminal His -tag on Ni -NTA
biosensors, against cyclic peptides. Response trace for each peptide concentration is represented by
a different colour, with the fitted curves overlaid in black.
concentration plotted, with 2-fold dilutions thereafter. Dual domain = PHD+JmjC. […]
against KDM7 and other protein domains. t1/2 = half life (0.693 / Koff)
(1 picture or pasted object on this page, not shown here)

[2] = target: T2, KDM7B PHD-finger (Homo sapiens, UniProt Q9UPP1); experiment: Protein NMR affinity assessment; type: binding; settings: read-out: NMR pKD, KDM7B PHD-finger (converted)
T2 construct: KDM7B 1-66; His-tag (C); made in house
T2 sequence (Q9UPP1 1-66 isoform Q9UPP1-2): T1 sequence (Q9UPP1 1-66 isoform Q9UPP1-2)

[3] = test system: full-length KDM7B; experiment: Pull-down from transfected HEK293T nuclear lysates; type: binding; settings: 100-fold excess competitor
Method: HEK293T cells were transiently transfected with either a full-length wild-type KDM7B, or an aromatic cage inactivating mutant KDM7B (Y14A, W29A).[20]
Capture was performed with 1 μM probe incubated in pre-cleared lysate, recovered with streptavidin-conjugated magnetic beads, then washed and eluted by heating in denaturing solution. 100-fold excess OC9 or OC9 V10A were used as competitors. […] The upper left quadrant indicates >5-fold difference in recovered protein (based on T-test difference of mean log 2 (LFQ) values) and p-value threshold <0.05.

| Kd [1] [µM] | Kd [2] [µM] | Structure (SMILES) | competition of OC9-Bt pull-down of KDM7B [3] |
| --- | --- | --- | --- |
| > 10 | > 501 | CC(C)C[C@@H]1NC(=O)[C@H](Cc2ccc(O)cc2)NC(=O)[C@H](Cc2ccc(O)cc2)NC(=O)CSC[C@@H](C(N)=O)NC(=O)[C@H]([C@@H](C)O)NC(=O)[C@H](CCCNC(=N)N)NC(=O)[C@H](Cc2ccccc2)NC(=O)[C@@H](C(C)C)NC(=O)[C@H](CO)NC(=O)[C@@H]2CCCN2C(=O)[C@H](Cc2ccc(O)cc2)NC(=O)[C@@H]2CCCN2C(=O)[C@H](Cc2c[nH]cn2)NC(=O)[C@H]([C@@H](C)O)NC1=O [OC9 V10DV] (HELM PEPTIDE1{[O=C(C[*:3])[*:2]].Y.Y.L.T.H.P.Y.P.S.[dV].F.R.T.C.[am]}$PEPTIDE1,PEPTIDE1,1:R3-15:R3$$$V2.0; C-terminus assumed) | – |
| – | – | CC(C)C[C@@H]1NC(=O)[C@H](Cc2ccc(O)cc2)NC(=O)[C@H](Cc2ccc(O)cc2)NC(=O)CSC[C@@H](C(N)=O)NC(=O)[C@H]([C@@H](C)O)NC(=O)[C@H](CCCNC(=N)N)NC(=O)[C@H](Cc2ccccc2)NC(=O)[C@H](C)NC(=O)[C@H](CO)NC(=O)[C@@H]2CCCN2C(=O)[C@H](Cc2ccc(O)cc2)NC(=O)[C@@H]2CCCN2C(=O)[C@H](Cc2c[nH]cn2)NC(=O)[C@H]([C@@H](C)O)NC1=O [V10A] (HELM PEPTIDE1{[O=C(C[*:3])[*:2]].Y.Y.L.T.H.P.Y.P.S.A.F.R.T.C.[am]}$PEPTIDE1,PEPTIDE1,1:R3-15:R3$$$V2.0; C-terminus assumed) | did not reduce recovery so substantially |
